Molecular target: Full length human CDC7 protein co-expressed with DBF4 (Homo sapiens (Human), UniProt O00311)
Assay: CDC7 kinase biochemical assay (ADP-Glo, PDKtide substrate)
Conditions: 0.1 nM CDC7/DBF4, 1 uM ATP, 10 uM PDKtide, 4 h
Protocol: CDC7 Kinase Biochemical Assay Protocol:
Full length human CDC7 protein co-expressed with DBF4 was purchased from SignalChem (China). CDC7 kinase activity was determined with PDKtide (SignalChem) as a substrate and by measuring ADP production using the ADP-Glo™ Kinase Assay kit (Promega) following the manufacturers instructions. The kinase reaction was performed using the following conditions: Buffer: 40 mM Tris pH 7.5, 20 mM MgCl2, 0.1 mg/ml BSA and 50 uM DTT. Final reaction mix contained 0.1 nM CDC7/DBF4, 1 uM ATP and 10 uM PDKtide. The kinase reaction time was 4 h. The ADP-Glo signal was measured using an EnVision plate reader (PerkinELmer).
Percent inhibition of CDC7 kinase activity was calculated based on the following formula:
[formula] • Ssample: the signal of compounds • SHigh Ctrl: the signal of high control (DMSO) • SLow Ctrl: the signal of low control (positive control CDC7 inhibitor)

Chain of Full length human CDC7 protein co-expressed with DBF4 (O00311 whole entry): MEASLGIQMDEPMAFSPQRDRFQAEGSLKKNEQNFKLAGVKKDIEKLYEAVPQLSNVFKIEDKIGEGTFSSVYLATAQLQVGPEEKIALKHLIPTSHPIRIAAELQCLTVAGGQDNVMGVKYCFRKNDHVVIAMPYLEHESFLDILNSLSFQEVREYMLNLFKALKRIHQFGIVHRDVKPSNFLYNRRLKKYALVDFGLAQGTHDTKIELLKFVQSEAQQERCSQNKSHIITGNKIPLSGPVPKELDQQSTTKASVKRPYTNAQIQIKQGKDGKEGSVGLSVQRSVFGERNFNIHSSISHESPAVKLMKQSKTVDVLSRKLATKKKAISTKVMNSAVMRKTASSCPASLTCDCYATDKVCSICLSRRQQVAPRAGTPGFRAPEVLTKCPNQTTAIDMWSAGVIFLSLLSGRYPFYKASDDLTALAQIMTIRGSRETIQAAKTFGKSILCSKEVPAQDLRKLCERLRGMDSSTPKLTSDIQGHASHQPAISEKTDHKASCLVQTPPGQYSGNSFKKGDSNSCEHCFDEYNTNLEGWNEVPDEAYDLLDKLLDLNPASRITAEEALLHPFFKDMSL
Chain of Full length human CDC7 protein co-expressed with DBF4 (Q9UBU7 whole entry partner): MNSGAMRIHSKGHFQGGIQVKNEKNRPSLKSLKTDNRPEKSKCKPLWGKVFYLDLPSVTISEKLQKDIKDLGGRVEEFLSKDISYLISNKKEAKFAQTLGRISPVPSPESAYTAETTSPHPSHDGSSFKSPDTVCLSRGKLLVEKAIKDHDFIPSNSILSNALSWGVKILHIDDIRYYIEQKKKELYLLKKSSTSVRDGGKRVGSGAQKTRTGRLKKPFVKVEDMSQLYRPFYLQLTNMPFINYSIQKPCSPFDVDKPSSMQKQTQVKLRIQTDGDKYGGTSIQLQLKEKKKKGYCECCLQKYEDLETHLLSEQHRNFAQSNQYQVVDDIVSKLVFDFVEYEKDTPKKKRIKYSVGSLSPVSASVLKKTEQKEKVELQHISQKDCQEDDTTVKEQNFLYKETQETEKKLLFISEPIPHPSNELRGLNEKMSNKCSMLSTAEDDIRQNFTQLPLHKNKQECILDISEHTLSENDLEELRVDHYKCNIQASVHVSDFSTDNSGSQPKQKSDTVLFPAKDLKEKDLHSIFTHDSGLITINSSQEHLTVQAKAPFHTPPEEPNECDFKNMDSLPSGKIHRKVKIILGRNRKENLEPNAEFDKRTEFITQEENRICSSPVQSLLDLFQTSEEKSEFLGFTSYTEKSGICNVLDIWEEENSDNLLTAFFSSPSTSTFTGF

IC50 [nM] | SMILES
< 1 | C[C@@H]1Cc2c(CN3CCC(F)(F)C3)[nH]c(=O)c3sc(-c4cn[nH]c4)c(c23)O1 (single isomer, unassigned) [Example 65]
< 1 | C[C@H]1Cc2c(CN3CCC(F)(F)C3)[nH]c(=O)c3sc(-c4cn[nH]c4)c(c23)O1 (single isomer, unassigned) [Example 66]
< 1 | CC[C@](C)(O)c1[nH]c(=O)c2sc(-c3ccncc3)c3c2c1CCCO3 (single isomer, unassigned) [Example 71]
< 1 | CC[C@@](C)(O)c1[nH]c(=O)c2sc(-c3ccncc3)c3c2c1CCCO3 (single isomer, unassigned) [Example 72]
≥ 10 | CC[C@](C)(O)c1[nH]c(=O)c2sc(-c3c[nH]nc3C)c3c2c1CCCO3 (single isomer, unassigned) [Example 73]
≥ 10 | CC[C@@](C)(O)c1[nH]c(=O)c2sc(-c3c[nH]nc3C)c3c2c1CCCO3 (single isomer, unassigned) [Example 74]
< 1 | C[C@H]1Cc2c(CN3CC(O)C3)[nH]c(=O)c3sc(-c4cn[nH]c4)c(c23)O1 (single isomer, unassigned) [Example 79]
< 1 | C[C@@H]1Cc2c(CN3CC(O)C3)[nH]c(=O)c3sc(-c4cn[nH]c4)c(c23)O1 (single isomer, unassigned) [Example 80]
< 1 | C[C@@H]1Cc2c(CN3CC[C@H]3C)[nH]c(=O)c3sc(-c4cn[nH]c4)c(c23)O1 (single isomer, unassigned) [Example 81]
< 1 | C[C@@H]1Cc2c(CN3CC[C@@H]3C)[nH]c(=O)c3sc(-c4cn[nH]c4)c(c23)O1 (single isomer, unassigned) [Example 82]
< 1 | C[C@H]1Cc2c(CN3CC[C@@H]3C)[nH]c(=O)c3sc(-c4cn[nH]c4)c(c23)O1 (single isomer, unassigned) [Example 83]
< 1 | C[C@@H]1CCN1Cc1[nH]c(=O)c2sc(-c3cn[nH]c3)c3c2c1C[C@H](C)O3 (single isomer, unassigned) [Example 84]
< 1 | CC1Cc2c(CN3CC(F)C3)[nH]c(=O)c3sc(-c4cn[nH]c4)c(c23)O1 (stereo in doubt) [Example 67, (R)-6-((3-fluoroazetidin-1-yl)methyl)-4-methyl-2-(1H-pyrazol-4-yl)-5,7-dihydro-3-oxa-1-thia-7-azaacenaphthylen-8(4H)-one]
< 1 | CC1Cc2c(CN3CC(F)C3)[nH]c(=O)c3sc(-c4cn[nH]c4)c(c23)O1 (stereo in doubt) [Example 68, (S)-6-((3-fluoroazetidin-1-yl)methyl)-4-methyl-2-(1H-pyrazol-4-yl)-5,7-dihydro-3-oxa-1-thia-7-azaacenaphthylen-8(4H)-one]
< 1 | CC1Cc2c(CN3CC[C@H](F)C3)[nH]c(=O)c3sc(-c4cn[nH]c4)c(c23)O1 (stereo in doubt) [Example 69, (S)-6-(((S)-3-fluoropyrrolidin-1-yl)methyl)-4-methyl-2-(1H-pyrazol-4-yl)-5,7-dihydro-3-oxa-1-thia-7-azaacenaphthylen-8(4H)-one]
< 1 | CC1Cc2c(CN3CC[C@H](F)C3)[nH]c(=O)c3sc(-c4cn[nH]c4)c(c23)O1 (stereo in doubt) [Example 70, (R)-6-(((S)-3-fluoropyrrolidin-1-yl)methyl)-4-methyl-2-(1H-pyrazol-4-yl)-5,7-dihydro-3-oxa-1-thia-7-azaacenaphthylen-8(4H)-one]

Further lines, the molecule ahead of its results:

SMILES | IC50 [nM]
CC(c1[nH]c(=O)c2sc(-c3cn[nH]c3)c3c2c1CCCO3)n1nccn1 (racemic) [Example 48, 2-(1H-pyrazol-4-yl)-7-[1-(triazol-2-yl)ethyl]-12-oxa-3-thia-6-azatricyclo[6.4.1.0^4,13] trideca-1,4(13),7-trien-5-one] | < 1
C[C@@H](c1[nH]c(=O)c2sc(-c3cn[nH]c3)c3c2c1CCCO3)n1cc(C#N)cn1 (single isomer, unassigned) [Example 26] | < 1
C[C@H](c1[nH]c(=O)c2sc(-c3cn[nH]c3)c3c2c1CCCO3)n1cc(C#N)cn1 (single isomer, unassigned) [Example 27] | < 1
C[C@H](O)c1[nH]c(=O)c2sc(-c3cn[nH]c3)c3c2c1CCCO3 (single isomer, unassigned) [Example 32] | < 1
C[C@@H](O)c1[nH]c(=O)c2sc(-c3cn[nH]c3)c3c2c1CCCO3 (single isomer, unassigned) [Example 33] | < 1
COC[C@H](c1[nH]c(=O)c2sc(-c3cn[nH]c3)c3c2c1CCCO3)n1cccn1 (single isomer, unassigned) [Example 35] | < 1
COC[C@@H](c1[nH]c(=O)c2sc(-c3cn[nH]c3)c3c2c1CCCO3)n1cccn1 (single isomer, unassigned) [Example 36] | < 1
COC[C@H](c1[nH]c(=O)c2sc(-c3cn[nH]c3)c3c2c1CCCO3)N1CCC(F)(F)C1 (single isomer, unassigned) [Example 37] | 1 to 10
COC[C@@H](c1[nH]c(=O)c2sc(-c3cn[nH]c3)c3c2c1CCCO3)N1CCC(F)(F)C1 (single isomer, unassigned) [Example 38] | 1 to 10
COC[C@@H](OC)c1[nH]c(=O)c2sc(-c3cn[nH]c3)c3c2c1CCCO3 (single isomer, unassigned) [Example 39] | < 1
COC[C@H](OC)c1[nH]c(=O)c2sc(-c3cn[nH]c3)c3c2c1CCCO3 (single isomer, unassigned) [Example 40] | < 1
C[C@H](c1[nH]c(=O)c2sc(-c3cn[nH]c3)c3c2c1CCCO3)n1ccnn1 (single isomer, unassigned) [Example 49] | < 1
C[C@@H](c1[nH]c(=O)c2sc(-c3cn[nH]c3)c3c2c1CCCO3)n1ccnn1 (single isomer, unassigned) [Example 50] | < 1
C[C@@](O)(c1[nH]c(=O)c2sc(-c3cn[nH]c3)c3c2c1CCCO3)C1CC1 (single isomer, unassigned) [Example 59] | < 1
C[C@](O)(c1[nH]c(=O)c2sc(-c3cn[nH]c3)c3c2c1CCCO3)C1CC1 (single isomer, unassigned) [Example 60] | < 1
C[C@H]1Cc2c(C(C)(C)O)[nH]c(=O)c3sc(-c4cn[nH]c4)c(c23)O1 (single isomer, unassigned) [Example 61] | < 1
C[C@@H]1Cc2c(C(C)(C)O)[nH]c(=O)c3sc(-c4cn[nH]c4)c(c23)O1 (single isomer, unassigned) [Example 62] | < 1
C[C@H]1Cc2c(CN3CCC3)[nH]c(=O)c3sc(-c4cn[nH]c4)c(c23)O1 (single isomer, unassigned) [Example 63] | < 1
C[C@@H]1Cc2c(CN3CCC3)[nH]c(=O)c3sc(-c4cn[nH]c4)c(c23)O1 (single isomer, unassigned) [Example 64] | < 1
Cc1[nH]c(=O)c2sc(-c3ccncc3)c3c2c1CCO3 [Example 2, 6-methyl-2-(pyridin-4-yl)-5,7-dihydro-3-oxa-1-thia-7-azaacenaphthylen-8(4H)-one] | < 1
Cc1[nH]c(=O)c2sc(-c3cn[nH]c3)c3c2c1CCO3 [Example 3, 6-methyl-2-(1H-pyrazol-4-yl)-5,7-dihydro-3-oxa-1-thia-7-azaacenaphthylen-8(4H)-one] | 1 to 10

Source: patent US20230365584A1, “HETEROCYCLIC PERICONDENSED CDC7 KINASE INHIBITORS FOR THE TREATMENT OF CANCER” (SCHRÖDINGER, INC., priority 2020, published 2023)
